Experimental data as given in patent US10568892B2, “Cycloartane tetracyclic triterpenoid compound, preparation method therefor and use thereof” (Hefei Cosource Pharmaceuticals Inc., priority 2016, dated 2020).

Test system: ventricular papillary muscle cell of guinea pig
Assay: Action potential of the ventricular papillary muscle cell of guinea pig (electrophysiological recording)
Assay type: cell-based
Conditions: screening stage; for percent change in action potential duration at 0.0005 µM / percent change in action potential duration at 0.005 µM / percent change in action potential duration at 0.05 µM: Cavia porcellus, 20 min, read-out: APD, Change rate (%); for Effect on the APD value of the action potential of the papillary muscle (in words): Table 3 summary; for APD, Post-administration: about 20 min perfusion
Experimental: Method: One guinea pig was taken to violently hit the back of the brain such that it fainted. The common carotid artery was cut off for bleeding to kill the guinea pig. The chest was incised to expose the heart, and the ventricle was cut open along the interventricular septum to expose the lumen of the left ventricle. The papillary muscles were quickly taken out and placed in a Kreb's solution saturated with O2 (mixed gas of 95% O2 and 5% CO2) at 0° C. After the microscopic dressing, the papillary muscle specimen was fixed with a stainless steel needle on the silicone rubber at the bottom of the perfusion bath, and perfused with the oxygen-saturated Kreb's solution. The relevant parameters for perfusion: the temperature was 37±0.5° C., and the flow rate was 4 mL/min.
Cellular action potentials were recorded using a conventional electrophysiological method. The glass electrode filled with 3M KCl saturated solution and having a tip resistance of 15-30 MΩ was fixed on the microelectrode manipulator MP-2. The glass electrode was gently inserted into the superficial layer of the prepared papillary muscle specimen using a microelectrode pusher. The electrode was adjusted to provide the predetermined bioelectrical stimulation with the triple-channel SEN-7203 electronic stimulator and SS-202 J isolator. The bioelectrical signal was amplified by the MEZ-8301 amplifier and then input to the computerized electrophysiological recording and analysis system Powerlab 4/25. Subsequently, the relevant parameters of the action potential for the ventricular papillary muscle were analyzed through the analysis system. The relevant parameters for electrical stimulation: 30 ms latency, 7 ms wavewidth, 1 Hz frequency, 52.1 my stimulation intensity.
In the compound screening test stage, after the ventricular papillary muscle specimen of the guinea pig was fixed, it was first perfused with a normal Kreb's solution for about 85 minutes for stabilization, and the relevant parameters of the cellular action potential before administration were recorded at about 80 min after the start of perfusion. The three-limb tube was used to convert the perfusates containing the title compounds. The title compounds were continuously perfused for about 25 min successively with low (0.0005 μM), medium (0.005 μM), and high (0.05 μM) concentrations, respectively. At about 20 min after the start of drug perfusions at different concentrations, the relevant parameters of the action potentials for the ventricular papillary muscle of guinea pig were observed and recorded, respectively. The normal Kreb's solution was used to perfuse and elute for about 25 min during the intervals between drug perfusions at different concentrations.
The experiment was divided into the following five groups with 6 animals in each group: a vehicle control group, a 369 low dose (0.0005 μM) group, a 369 medium dose (0.005 μM) group, a 369 high dose (0.05 μM) group, and an amiodarone (10 μM) positive control group. After the ventricular papillary muscle specimen of the guinea pig was fixed, it was first perfused with a normal Kreb's solution for about 85 minutes for stabilization, and the relevant parameters of the cellular action potential before administration were recorded at about 80 min after the start of perfusion. According to groups, the three-limb tube was configured to convert the perfusates containing the vehicle, positive control, or Compound 369 at the corresponding concentrations to continuously perfuse for about 25 min. At about 20 min after the start of the perfusions, the relevant parameters of the action potentials for the ventricular papillary muscle of guinea pig were observed and recorded.

Row | Structure (SMILES) | percent change in action potential duration at 0.0005 µM (0.0005 μM) | percent change in action potential duration at 0.005 µM (0.005 μM) | Effect on the APD value of the action potential of the papillary muscle (in words) | APD, Post-administration (0.0005 μM) | APD, Post-administration (0.005 μM) | percent change in action potential duration at 0.05 µM (0.05 μM) | APD, Post-administration (0.05 μM)
1 | CC(=O)C1=CC[C@@]2(C)[C@@H]3CC[C@H]4C(C)(C)[C@@H](N(C)C)CC[C@@]45C[C@@]35CC[C@]12C [Compound 383, (3β,5α)-4,4,14-trimethyl-3-(dimethylamino)-9,19-cyclopregnan-16-en-20-one] | 16.3% | 29% | a certain degree of prolonged effects | 0.0943 | 0.1024 | – | –
2 | CN[C@H]1CC[C@]23C[C@]24CC[C@]2(C)C(C(C)=O)=C(C)C[C@@]2(C)[C@@H]4CC[C@H]3C1(C)C [Compound 383a, (3β,5α)-4,4,14,16-tetramethyl-3-(methylamino)-9,19-cyclopregnan-16-en-20-one] | 4.02% | 33% | a certain degree of prolonged effects | 0.0751 | 0.0943 | 30% | 0.0948
3 | CN[C@H]1CC[C@]23C[C@]24CC[C@]2(C)C(/C(C)=N\O)=CC[C@@]2(C)[C@@H]4CC[C@H]3C1(C)C [Compound 384, (3β,5α)-4,4,14-trimethyl-3-(methylamino)-9,19-cyclopregnan-16-en-20-one oxime] | 21.2% | 38.6% | a certain degree of prolonged effects | 0.0890 | 0.0988 | 41.3% | 0.1047
4 | CN[C@H]1CC[C@]23C[C@]24CC[C@]2(C)C(C(=O)CO)=CC[C@@]2(C)[C@@H]4CC[C@H]3C1(C)C [Compound 385, (3β,5α)-4,4,14-trimethyl-21-hydroxy-3-(methylamino)-9,19-cyclopregnan-16-en-20-one] | 16.4% | 27.4% | a certain degree of prolonged effects | 0.0796 | 0.0893 | 40.1% | 0.975
5 | CN[C@H]1CC[C@]23C[C@]24CC[C@]2(C)C(C(C)=O)=C(F)C[C@@]2(C)[C@@H]4CC[C@H]3C1(C)C [Compound 387, (3β,5α)-4,4,14-trimethyl-16-fluoro-3-(methylamino)-9,19-cyclopregnan-16-en-20-one] | 8.49% | 19.8% | a certain degree of prolonged effects | 0.0869 | 0.0944 | 24.2% | 0.0985
6 | CCN(C)[C@H]1CC[C@]23C[C@]24CC[C@]2(C)C(C(C)=O)=CC[C@@]2(C)[C@@H]4CC[C@H]3C1(C)C [Compound 397, (3β,5α)-4,4,14-trimethyl-3-(methylethylamino)-9,19-cyclopregnan-16-en-20-one] | 7.68% | -3% | – | 0.0785 | 0.0711 | 11.8% | 0.0841
7 | CN[C@H]1CC[C@]23C[C@]24CC[C@]2(C)C(/C(C)=N\OC)=CC[C@@]2(C)[C@@H]4CC[C@H]3C1(C)C [Compound 398, (3β,5α)-4,4,14-trimethyl-3-(methylamino)-20-methoxyimino-9,19-cyclopregnan-16-ene] | -0.86% | 6.63% | – | 0.0695 | 0.771 | 9.46% | 0.764
8 | CN(C)[C@H]1CC[C@]23C[C@]24CC[C@]2(C)C(C(=O)CO)=CC[C@@]2(C)[C@@H]4CC[C@H]3C1(C)C [Compound 399a, (3β,5α)-4,4,14-trimethyl-21-hydroxy-3-(dimethylamino)-9,19-cyclopregnan-16-en-20-one] | 24.4% | 28.5% | a certain degree of prolonged effects | 0.0960 | 0.1010 | 38.4% | 0.1103
9 | CC(=O)C1=CC[C@@]2(C)[C@@H]3CC[C@H]4C(C)(C)[C@@H](N(C)C5CC5)CC[C@@]45C[C@@]35CC[C@]12C [Compound 409, (3β,5α)-4,4,14-trimethyl-3-(methylcyclopropylamino)-9,19-cyclopregnan-16-en-20-one] | 1.84% | 3.25% | – | 0.0773 | 0.0762 | 6.07% | 0.0786
10 | CN[C@H]1CC[C@]23C[C@]24CC[C@]2(C)C(C(=O)COC(C)=O)=CC[C@@]2(C)[C@@H]4CC[C@H]3C1(C)C [Compound 427, (3β,5α)-4,4,14-trimethyl-21-acetoxy-3-(methylamino)-9,19-cyclopregnan-16-en-20-one] | 18.2% | 20.6% | a certain degree of prolonged effects | 0.0903 | 0.0929 | 42.9% | 0.1073
11 | CN[C@H]1CC[C@]23C[C@]24CC[C@]2(C)C(C(=O)COC(=O)c5ccccc5)=CC[C@@]2(C)[C@@H]4CC[C@H]3C1(C)C [Compound 489, (3β,5α)-4,4,14-trimethyl-3-(methylamino)-21-(benzoyloxy)-9,19-cyclopregnan-16-en-20-one] | -2.09% | 1.85% | – | 0.0750 | 0.0771 | 9.63% | 0.820
12 | CN[C@H]1CC[C@]23C[C@]24CC[C@]2(C)C(C(=O)COC(=O)CCC(=O)O)=CC[C@@]2(C)[C@@H]4CC[C@H]3C1(C)C.Cl [Compound 522, (3β,5α)-4,4,14-trimethyl-3-(methylamino)-21-(3-carboxypropionyloxy)-9,19-cyclopregnan-16-en-20-one hydrochloride] | 2.87% | 27.2% | a certain degree of prolonged effects | 0.0824 | 0.0996 | 36% | 0.1102
13 | CN[C@H]1CC[C@]23C[C@]24CC[C@]2(C)C(C(=O)COC(=O)c5ccccc5C(=O)O)=CC[C@@]2(C)[C@@H]4CC[C@H]3C1(C)C.Cl [Compound 570, (3β,5α)-4,4,14-trimethyl-3-(methylamino)-21-(2-carboxybenzoyloxy)-9,19-cyclopregnan-16-en-20-one hydrochloride] | 12.3% | 21.8% | a certain degree of prolonged effects | 0.0813 | 0.0850 | 30.5% | 0.928
